Assay results taken from the CheMixHub viscosity set.

Assay: xn = mol fraction of the nth substance listed

CCCN + CCCCN(CCCC)CCCC
303.15 K, 101 kPa
Settings	viscosity [mPa·s]
x2 = 0.2025	0.5088
x2 = 0.4055	0.6949
x2 = 0.4953	0.7795
x2 = 0.603	0.8793
x2 = 0.7931	1.04

C=COC(C)=O + CCCCO
303.15 K, 101.33 kPa
Settings	viscosity [mPa·s]
x1 = 0.1008	1.622
x1 = 0.1999	1.211
x1 = 0.3008	0.944
x1 = 0.3993	0.768
x1 = 0.5055	0.634
x1 = 0.6002	0.547
x1 = 0.6998	0.482
x1 = 0.7997	0.433
x1 = 0.8749	0.405

CC(C)c1ccccc1 + CCCCO
viscosity [mPa·s], 101 kPa
Settings	298.15 K	303.15 K	308.15 K	313.15 K	318.15 K	323.15 K
x1 = 0.0989	2.069	–	1.657	–	–	–
x1 = 0.1844	1.723	–	1.398	–	–	–
x1 = 0.2877	1.417	–	1.135	–	–	–
x1 = 0.3941	1.188	–	0.9456	–	–	–
x1 = 0.5189	1.001	–	0.8025	–	–	–
x1 = 0.6544	0.8693	–	0.7291	–	–	–
x1 = 0.796	0.7776	–	0.7157	–	–	–
x2 = 0.1001	–	0.6982	0.6545	0.6143	0.5795	0.5481
x2 = 0.1998	–	0.7295	0.6815	0.6366	0.5969	0.5613
x2 = 0.3007	–	0.7788	0.7225	0.6725	0.6285	0.5885
x2 = 0.3997	–	0.8423	0.7784	0.7209	0.6696	0.6249
x2 = 0.4999	–	0.9355	0.8588	0.7901	0.7288	0.6767
x2 = 0.6	–	1.068	0.9725	0.8867	0.8131	0.7485
x2 = 0.6992	–	1.252	1.129	1.022	0.9275	0.848
x2 = 0.7999	–	1.474	1.323	1.187	1.068	0.9682
x2 = 0.9006	–	1.837	1.629	1.452	1.298	1.168

CCCCOC(C)=O + CCCCO
viscosity [mPa·s], 101 kPa
Settings	x1 = 0.1	x1 = 0.1944	x1 = 0.2974	x1 = 0.3991	x1 = 0.4988	x1 = 0.6008	x1 = 0.6913	x1 = 0.7961	x1 = 0.8993
298.15 K	2.212	1.921	1.641	1.407	1.212	1.041	0.923	0.813	0.727
303.15 K	1.962	1.713	1.475	1.262	1.091	0.948	0.839	0.755	0.688
308.15 K	1.75	1.532	1.31	1.146	0.993	0.876	0.789	0.703	0.646
313.15 K	1.558	1.365	1.184	1.037	0.908	0.806	0.731	0.662	0.619

CCCN + CCCCO
Settings	viscosity [mPa·s]
298.15 K, 100 kPa, x2 = 0.0488	0.3946
298.15 K, 100 kPa, x2 = 0.0977	0.4367
298.15 K, 100 kPa, x2 = 0.2026	0.552
298.15 K, 100 kPa, x2 = 0.2966	0.6772
298.15 K, 100 kPa, x2 = 0.4	0.8384
298.15 K, 100 kPa, x2 = 0.4939	1.003
298.15 K, 100 kPa, x2 = 0.58	1.166
298.15 K, 100 kPa, x2 = 0.645	1.305
298.15 K, 100 kPa, x2 = 0.7024	1.45
298.15 K, 100 kPa, x2 = 0.7958	1.721
298.15 K, 100 kPa, x2 = 0.9025	2.113
303.15 K, 101 kPa, x1 = 0.01186	2.214
303.15 K, 101 kPa, x1 = 0.02208	2.185
303.15 K, 101 kPa, x1 = 0.03071	2.16
303.15 K, 101 kPa, x1 = 0.04153	2.133
303.15 K, 101 kPa, x1 = 0.04894	2.113
303.15 K, 101 kPa, x1 = 0.06228	2.083
303.15 K, 101 kPa, x1 = 0.07291	2.053
303.15 K, 101 kPa, x1 = 0.07608	2.038
303.15 K, 101 kPa, x1 = 0.08641	2.013
303.15 K, 101.33 kPa, x1 = 0.0967	2.02
303.15 K, 101.33 kPa, x1 = 0.186	1.771
303.15 K, 101.33 kPa, x1 = 0.2863	1.501
303.15 K, 101.33 kPa, x1 = 0.4131	1.177
303.15 K, 101.33 kPa, x1 = 0.514	0.9669
303.15 K, 101.33 kPa, x1 = 0.6196	0.7833
303.15 K, 101.33 kPa, x1 = 0.7178	0.6396
303.15 K, 101.33 kPa, x1 = 0.8121	0.5233
303.15 K, 101.33 kPa, x1 = 0.9017	0.433
313.15 K, 101.33 kPa, x1 = 0.0967	1.617
313.15 K, 101.33 kPa, x1 = 0.186	1.427
313.15 K, 101.33 kPa, x1 = 0.2863	1.218
313.15 K, 101.33 kPa, x1 = 0.4131	0.9675
313.15 K, 101.33 kPa, x1 = 0.514	0.7924
313.15 K, 101.33 kPa, x1 = 0.6196	0.6548
313.15 K, 101.33 kPa, x1 = 0.7178	0.5412
313.15 K, 101.33 kPa, x1 = 0.8121	0.4506
313.15 K, 101.33 kPa, x1 = 0.9017	0.3783

Oc1ccccc1Cl + CCCCOCCO
viscosity [mPa·s], 101 kPa
Settings	x1 = 0.1256	x1 = 0.2442	x1 = 0.3565	x1 = 0.4628	x1 = 0.5638	x1 = 0.6597	x1 = 0.751	x1 = 0.8379	x1 = 0.9208
303.15 K	3.306	4.125	4.745	5.08	5.13	4.92	4.5	3.975	3.396
308.15 K	2.934	3.49	3.876	4.084	4.093	3.935	3.654	3.302	2.895
313.15 K	2.604	2.992	3.267	3.404	3.405	3.298	3.106	2.847	2.563
318.15 K	2.282	2.554	2.738	2.82	2.833	2.754	2.624	2.45	2.254

CCCN + CCCCOCCOCCO
298.15 K, 101 kPa
Settings	viscosity [mPa·s]
x2 = 0.0104	0.381
x2 = 0.0212	0.404
x2 = 0.0381	0.44
x2 = 0.0898	0.562
x2 = 0.1063	0.602
x2 = 0.129	0.668
x2 = 0.164	0.78
x2 = 0.1944	0.884
x2 = 0.2231	1.003
x2 = 0.2623	1.178
x2 = 0.3079	1.4
x2 = 0.327	1.505
x2 = 0.3856	1.851
x2 = 0.4114	2.011
x2 = 0.4443	2.23
x2 = 0.4782	2.46
x2 = 0.5424	2.9
x2 = 0.5729	3.115
x2 = 0.6163	3.404
x2 = 0.6419	3.571
x2 = 0.6779	3.79
x2 = 0.7205	4.031
x2 = 0.7508	4.193
x2 = 0.7957	4.402
x2 = 0.8278	4.535
x2 = 0.8577	4.647
x2 = 0.8744	4.703
x2 = 0.9181	4.837
x2 = 0.9513	4.925
x2 = 0.9752	4.986
